Laboratory results published in patent publication US20120282242A1 (priority 2002, published 2012).
Several values for one entry are separate records, joined by “and”; a condition that tells them apart may be missing. Identical values can stand only once. Entries after “also recorded” stand apart in the source; their conditions may differ.

Experiments:
eye muscles = conditions: in vivo
[1] = system: brain synaptosome preparations; conditions: cited from earlier work
[2] = system: primary cultures of spinal cord neurons; conditions: cited from earlier work
glaucoma patients [3] = conditions: human, in vivo
glaucoma patients [4] = system: glaucoma patients; design: species or system human; conditions: in vivo
glaucoma patients [5] = conditions: human, in vivo; remark: listed apart in the source
[6] = system: eyelid muscles (Riolan's muscle, orbicularis muscle); design: species or system human; conditions: in vivo

NCC1(CC(=O)O)CCCCC1 [Gabapentin]
therapeutic effect (eye muscles): achieved therapeutic effect

COc1cccc2c1C(=O)c1c(O)c3c(c(O)c1C2=O)C[C@@](O)(C(=O)CO)C[C@@H]3O[C@H]1C[C@H](N)[C@H](O)[C@H](C)O1 [doxorubicin]
effect on eye muscles (eye muscles): reduce the strength of eye muscles
reducing and modulating muscle volume and muscle contraction (eye muscles): have proven to be effective

CCN(CC)CC(=O)Nc1c(C)cccc1C [lidocaine, Diethylaminoacet-2,6-xylidide]
modulation of muscle action (eye muscles; iv): promotes the desired effect, but the effect is short lived

COc1ccc(CCN(C)CCCC(C#N)(c2ccc(OC)c(OC)c2)C(C)C)cc1OC (stereo not drawn) [verapamil]
therapeutic effect (eye muscles): causes desired therapeutic effect

botulinum toxin
release of acetylcholine and glutamate [1]: inhibits the release of both neurotransmitters
evoked release of glutamate [2]: inhibits the evoked release of glutamate
Outcome: VF progression (glaucoma patients [3]): no VF progression; also recorded: minimal VF progression
Outcome: progression of diabetic retinopathy (glaucoma patients [3]): No progression of diabetic retinopathy
disturbance of lid function / subjective complaints (glaucoma patients [4]): did not lead to any apparent disturbance of lid function
12 week period average reduction of baseline eye pressure (glaucoma patients [5]): 16%
% IOP reduction (glaucoma patients [5]): 16.6% and 11.5%
% reduction IOP (glaucoma patients [5]): 12.5% and 10% and 7%
IOP post Rx during first 3 Rx (glaucoma patients [5]): 26 and 24 and 23
IOP reduction (glaucoma patients [5]): 10.5% and 14%
reduction of IOP in the treated eye (glaucoma patients [5]): no reduction of IOP
baseline eye pressure after injection [6]: A reduction of baseline eye pressure was also noted
decrease in eye pressure per spike per blink [6]: more than 5 mm Hg
lower increase in eye pressure during forceful squeezing of the eyelids compared with control [6]: ~50%
reduction in eye pressure after forceful closure of the eyes [6]: ~35%
spike in pressure during blinking measured by LMD [6]: 25 mm Hg and 20 mm Hg
